Counter-ions that a name gives are not always drawn.
Experiments:
[1] = molecular target: 5-HT1BR (Mus musculus, UniProt P28334)
Method: Counting was done based on the endogenous fluorescence. […] (d) Number of vessels (counted with endogenous GFP from Flk1^GFP/+ mouse) in fluoxetine, fluoxetine and 5HT1B inhibitor, inhibitor alone per mm^2 in the heart.
Statistical analysis was performed using GraphPad Prism software using appropriate tests (non-parametric Mann-Whitney unless specified) and a minimum of 95% confidence interval for significance; p values indicated on figures are <0.05 (*), <0.01 (**), and <0.001 (***). Figures display average values of all animals tested ±SD

[2] = tested on: Flk1^GFP/+ mice; test: Vessel number in the heart of Flk1GFP/+ mice after 6 weeks of fluoxetine; format: in vivo; details: fluoxetine 18 mg/Kg
From the text: Counting was done based on the endogenous fluorescence. (b-c) Cryo-sections of the heart of Flk1^GFP/+ mice treated with placebo (b) or fluoxetine (c). Endogenous GFP levels are shown. (d) Number of vessels (counted with endogenous GFP from Flk1^GFP/+ mouse) in fluoxetine, fluoxetine and 5HT1B inhibitor, inhibitor alone per mm^2 in the heart. (e-f) Haematoxylin and eosin staining of heart of the placebo and the fluoxetine treated mice. (g) Quantification of the infarcted area with or without fluoxetine treatment.
(§1) Hearts were carefully dissected and snap frozen in liquid-nitrogen-cooled OCT for a few minutes and stored at −80° C. prior to cryosectioning (10 μm sections). Sections were kept at room temperature overnight before staining. Sections were then rehydrated in PBS for 10 minutes and fixed in 10% formalin for 3 minutes. The sections were then routinely stained with haematoxylin and eosin (HE) using an automated stain machine or manually with red sirius.
Statistical analysis was performed using GraphPad Prism software using appropriate tests (non-parametric Mann-Whitney unless specified) and a minimum of 95% confidence interval for significance; p values indicated on figures are <0.05 (*), <0.01 (**), and <0.001 (***). Figures display average values of all animals tested ±SD […]

[3] = tested on: C57Bl/6 mice; test: Ischemia reperfusion (myocardial infarct), infarcted area by histology; format: in vivo; details: C57Bl/6 mice treated with fluoxetine for 6 weeks
Method: (e-f) Haematoxylin and eosin staining of heart of the placebo and the fluoxetine treated mice. (g) Quantification of the infarcted area with or without fluoxetine treatment.
Animals were anesthetized with ketamine (Imalgene1000 100 mg/Kg Merial) and Xylazine (Rompun2% 20 mg/Kg Bayer) prior to injury. Animals were hydrated and treated with analgesic (Buprenorphin Axience 0.3 mg/kg) twice a day for 4 days following injury.
as §1
For image analysis (fibrosis quantification) ImageJ 1.46r software was using between different photos randomly taken per section and 3 sections minimum per experimental group. The pictures were converted in a binary image and the pixel values then collected.
Statistical analysis was performed using GraphPad Prism software using appropriate tests (non-parametric Mann-Whitney unless specified) and a minimum of 95% confidence interval for significance; p values indicated on figures are <0.05 (*), <0.01 (**), and <0.001 (***). […]

5-HT1BR, sequence (P28334 whole entry): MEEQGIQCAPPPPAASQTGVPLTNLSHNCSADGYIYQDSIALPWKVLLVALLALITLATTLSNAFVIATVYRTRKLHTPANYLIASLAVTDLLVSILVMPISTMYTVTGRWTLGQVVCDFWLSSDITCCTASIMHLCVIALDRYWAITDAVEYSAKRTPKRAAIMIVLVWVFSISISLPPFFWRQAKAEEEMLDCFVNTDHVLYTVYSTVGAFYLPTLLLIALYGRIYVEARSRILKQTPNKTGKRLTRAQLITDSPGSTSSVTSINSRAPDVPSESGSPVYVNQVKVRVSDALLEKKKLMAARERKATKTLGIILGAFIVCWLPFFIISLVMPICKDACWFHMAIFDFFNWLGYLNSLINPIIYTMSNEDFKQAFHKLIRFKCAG

Compound | effect of 5-HT1BR inhibition on the fluoxetine-induced increase in vessel number in the heart ([1]; GR127935 hydrochloride in osmotic pump together with fluoxetine treatment) | vessel number in the heart ([2]; 6 weeks IP, placebo 932.9±186, p=0.017) [vessels] | vessel number in the heart ([2]; 6 weeks PO, placebo 932.9±186, p=0.03) [vessels] | infarcted area at the histological level ([3]; 3 days after infarct, placebo 53126±11849, p=0.02) [pixels] | infarcted area, first observation after ischemia reperfusion ([3]; control 5%) | vessel number in the heart ([1]; fluoxetine and PBS treated mice) [vessels per mm^2]
COc1ccc(NC(=O)c2ccc(-c3ccc(-c4noc(C)n4)cc3C)cc2)cc1N1CCN(C)CC1 [GR127935 hydrochloride] | no increase in the vessel number in the heart was observed |  |  |  |  | 
CNCCC(Oc1ccc(C(F)(F)F)cc1)c1ccccc1 (stereo not drawn) [fluoxetine] |  | 1634±608 | 1474±375 | 36690±7884 | 25 % of total area | 1697±702

Reference: patent US20180303772A1, “5-HYDROXYTRYPTAMINE 1B RECEPTOR-STIMULATING AGENT FOR THE TREATMENT OF MYOCARDIAL INFARCTION” (INSTITUT PASTEUR, priority 2015, published 2018)
